One compound from article PMC13388172 (Frontiers in Pharmacology, 2026) can be followed below.

The nature of this data set: Therapeutic drug monitoring of serum ETI components and metabolites (UPLC-MS/MS), hourly for 9 hours after ingestion. The data set is classed as in vivo. The note with it: female, human, oral, full dose ETI, one pwCF, sampled hourly for 9 hours after ingestion, read-out: Area under the curve (AUC), serum.

For orientation: AUC means concentration integrated over time.

Description: The analytes of interest were assayed using an ultra-performance liquid chromatography tandem mass spectrometry method. In the concentration range from 0.01 to 20.0 mg/L, calibration curves were linear with a correlation coefficient >0.999 for all analytes.
Repeat TDM was conducted after a month on this reduced dosing strategy as this was felt likely to provide adequate time for steady-state concentrations to be achieved.

Turning to `CC(C)(CO)c1cc2cc(NC(=O)C3(c4ccc5c(c4)OC(F)(F)O5)CC3)c(F)cc2n1C[C@@H](O)CO` [tezacaftor], the AUC was determined as 92600 ng·h/mL.
